# Test results as given in patent publication US20170065564A1, “BIS-CYCLIC GUANIDINE COMPOUND COMPOSITIONS, METHODS OF USE AND TREATMENT THEREOF” (University of South Florida, priority 2014, published 2017).
# Tests used:
# human A549 cells = assay: Cytotoxicity assay (MTT); format: cell-based; details: for IC50: Homo sapiens, A549, MTT, 48 hours
# Experimental: Cytotoxicity assays were performed using human A549 cells (adenocarcinomic human alveolar epithelial cells), as described by us previously.^44 Briefly, cells were cultured in F-12K Nutrient mixture (Kaighn's Modification) media containing L-glutamine, supplemented with 10% fetal bovine serum and 1% penicillin-streptomycin for 3 days at 37° and 5% CO2. Cells were then diluted to 1.0×10^5 ml^−1 using F-12K supplemented media, and added to 96 well tissue culture plates at a volume of 100 μl. Plates were incubated for 24 hours at 37° C. and 5% CO2, allowing the cells to adhere to the plastic. […] Plates were then incubated for 48 hours at 37° C. and 5% CO2. After 48 hours the media was removed, and new media added containing MTT (3-(4, 5-dimethylthiazol-2-yl)-2, 5-diphenyltetrazolium bromide), followed by incubation for four hours at 37° C. and 5% CO2. After 4 h, 50 μl of media was removed, replaced with DMSO and incubated for ten minutes at 37° C. in order to solubilize any formazan produced. A Biotek plate reader was used to measure the absorbance of formazan production at […], and IC50 values were determined for each of the five compounds. Front runners were solvated in 45% w/v (2-hydroxypropyl)-β-cyclodextrin in water for these studies; which was also used alone as a negative control. IC50 values were determined for each compound by comparison to vehicle only controls, to assess toxicity to human cells.
# ESKAPE pathogens = assay: MIC micro broth dilution assay, statements and stacked scores over all ESKAPE pathogens; format: cell-based; details: letters E,S,K,A,P,E = ESKAPE pathogens, — = none
# In short: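 Overnight cultures of multidrug-resistant clinical isolates, diluted 1 in 1,000 (Gram-positives in TSB, Gram-negatives in LB), were exposed to decreasing compound concentrations in DMF (≤2.0%) at 37° C. MIC was read visually as no turbidity after 24 hours, in triplicate. Broad-spectrum activity was ranked by stacked scores.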
# Pseudomonas aeruginosa = assay: MIC micro broth dilution assay; format: cell-based; details: for MIC: Pseudomonas aeruginosa; for concentration inhibiting 90% of isolates: panel of P. aeruginosa clinical isolates
# Experimental: For this study we used a representative panel of multi-drug resistant clinical ESKAPE pathogen isolates (Supplemental Table S6).^42 43 3a, 44 45 Gram-positive organisms were grown in tryptic soy broth media (TSB), whilst Gram-negative organisms were grown in lysogeny Broth (LB), as described by us previously. ^43 MIC and MBC determination assays.
# Broth cultures of ESKAPE strains were grown overnight before being diluted 1 in 1,000 in fresh media. Sterile 96-well plates were loaded with culture and compounds (in DMF) were added at decreasing concentrations to equal a total volume of 200 μl per well. Care was taken to not add more than 2.0% DMF to any well. Plates were then incubated at 37° C., and MICs determined after 24 hours by visual inspection for a lack of turbidity in wells. All assays were performed in triplicate with identical results obtained. For both the scaffold ranking and positional scanning samples, relative broad-spectrum activity was determined via stacked scores: […]
# Klebsiella pneumoniae = assay: MIC micro broth dilution assay; format: cell-based; details: for stacked score activity, 100/MIC, K: K. pneumoniae; for MIC: Klebsiella pneumoniae
# In short: (§1)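 Strains were multidrug-resistant clinical isolates grown in LB (Gram-negative) or TSB (Gram-positive), diluted 1:1,000 before compound addition.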
# Acinetobacter baumannii = assay: MIC micro broth dilution assay; format: cell-based; details: for stacked score activity, 100/MIC, A: A. baumannii; for MIC: Acinetobacter baumannii
# In short: as §1
# [1] = system: Staphylococcus aureus (USA300 strain FPR3757); assay: Murine model of lethal peritonitis; format: in vivo, mice; details: 2× MIC, I.M., 1 h post-infection, six mice per group
# Experimental: Using MRSA as a representative ESKAPE organism, we infected mice with 1×10^8 bacterial cells in 5% mucin via intraperitoneal injection. At 1 h post-infection, mice were then I.V. injected with either vancomycin (positive control), or I.M. with our front runner compounds.
# Six mice per group were injected with 1×10^8 CFU ml^−1 of Staphylococcus aureus (USA300 strain FPR3757) in PBS containing 5% mucin. […] Mice were monitored twice daily for five days to assess mortality. The clinical endpoint of this study was when the mice reached a pre-moribund state. Characteristics of pre-moribund state include: hunched posture, rapid, shallow and/or labored breathing, ruffled fur, lethargy, failure to respond to stimuli, soiled anogenital area, paralysis, paresis, head tilt, circling, vocalizations, non-purposeful movements and/or were unable to eat or drink. Those mice reaching this state prior to the completion of the 5 day infection period were euthanized. The number of mice surviving between control and treatment groups was compared and analyzed for statistical significance using a log rank test.
# E. cloacae = format: cell-based, Enterobacter cloacae; details: 8 passages, concentration doubled each day
# Experimental: ESKAPE pathogens were grown overnight in liquid media at 37° C. These cultures were then diluted 1:100 in fresh media, and seeded into a 96-well plate. Lead bis-cyclic guanidines or control agents were added to respective wells at half MIC concentrations. […] These were then grown overnight, and the procedure repeated for a total of eight days.
# [2] = panel of K. pneumoniae clinical isolates
structure (smiles),measurement,setting,value
CCCCCCCN1C(=N)N(CCCC[C@H]2CNC(=N)N2CCc2cccc(C(F)(F)F)c2)C[C@@H]1CCCC [Compound 1],A549 cell recovery compared to vehicle only controls,human A549 cells; 225 μM (highest concentration tested),around 40%
same,IC50,human A549 cells,164 µM
same,pathogens against which the compound showed activity at 5 ug/ml,ESKAPE pathogens,ESKAPE
same,pathogens against which the compound showed activity at 10 ug/ml,ESKAPE pathogens,ESKAPE
same,pathogens against which the compound showed activity at 25 ug/ml,ESKAPE pathogens,ESKAPE
same,MIC,Pseudomonas aeruginosa; P. aeruginosa isolate 1414,5 µM
same,MIC,Pseudomonas aeruginosa; P. aeruginosa isolate 1415,5 µM
same,MIC,Pseudomonas aeruginosa; P. aeruginosa isolate 1416,5 µM
same,MIC,Pseudomonas aeruginosa; P. aeruginosa isolate 1417,5 µM
same,MIC,Pseudomonas aeruginosa; P. aeruginosa isolate 1418,7 µM
same,MIC,Pseudomonas aeruginosa; P. aeruginosa isolate 1419,5 µM
same,MIC,Pseudomonas aeruginosa; P. aeruginosa isolate 1420,5 µM
same,MIC,Pseudomonas aeruginosa; P. aeruginosa isolate 1421,5 µM
same,MIC,Pseudomonas aeruginosa; P. aeruginosa isolate 1422,5 µM
same,MIC,Pseudomonas aeruginosa; P. aeruginosa isolate 1423,2 µM
same,MIC,"Pseudomonas aeruginosa; purified compound, Table 1",1.63 µM
same,concentration inhibiting 90% of isolates,Pseudomonas aeruginosa,10 µM
same,"stacked score activity, 100/MIC, K",Klebsiella pneumoniae,33
same,MIC,Klebsiella pneumoniae; K. pneumoniae isolate 1408,2 µM
same,MIC,Klebsiella pneumoniae; K. pneumoniae isolate 1409,3 µM
same,MIC,Klebsiella pneumoniae; K. pneumoniae isolate 1410,3 µM
same,MIC,Klebsiella pneumoniae; K. pneumoniae isolate 1411,2 µM
same,MIC,Klebsiella pneumoniae; K. pneumoniae isolate 1412,5 µM
same,MIC,Klebsiella pneumoniae; K. pneumoniae isolate 1413,3 µM
same,MIC,Klebsiella pneumoniae; K. pneumoniae isolate 1433,2 µM
same,MIC,Klebsiella pneumoniae; K. pneumoniae isolate 1434,5 µM
same,MIC,Klebsiella pneumoniae; K. pneumoniae isolate 1440,2 µM
same,MIC,Klebsiella pneumoniae; K. pneumoniae isolate 1441,2 µM
same,MIC,"Klebsiella pneumoniae; purified compound, Table 1",1.63 µM
same,concentration inhibiting 90% of isolates,Klebsiella pneumoniae; [2],10 µM
same,"stacked score activity, 100/MIC, A",Acinetobacter baumannii,20
same,MIC,Acinetobacter baumannii; A. baumannii isolate 1403,2 µM
same,MIC,Acinetobacter baumannii; A. baumannii isolate 1643,2 µM
same,MIC,Acinetobacter baumannii; A. baumannii isolate 1644,2 µM
same,MIC,Acinetobacter baumannii; A. baumannii isolate 1647,2 µM
same,MIC,Acinetobacter baumannii; A. baumannii isolate 1648,2 µM
same,MIC,Acinetobacter baumannii; A. baumannii isolate 1649,2 µM
same,MIC,Acinetobacter baumannii; A. baumannii isolate 1650,2 µM
same,MIC,Acinetobacter baumannii; A. baumannii isolate 1651,2 µM
same,MIC,Acinetobacter baumannii; A. baumannii isolate 1653,2 µM
same,MIC,Acinetobacter baumannii; A. baumannii isolate 1654,2 µM
same,MIC,"Acinetobacter baumannii; purified compound, Table 1",1.63 µM
same,survival of infected mice over 5 day infection period,[1],all mice survived
"CCCC[C@H]1CN(CCCC[C@H]2CNC(=N)N2CCc2cccc(C(F)(F)F)c2)C(=N)N1CCCCC1CCCCC1 [Compound 2, (S)-4-butyl-3-(4-cyclohexylbutyl)-1-(4-((S)-2-imino-3-(3-(trifluoromethyl)phenethyl)imidazolidin-4-yl)butyl)imidazolidin-2-imine]",IC50,human A549 cells,125 µM
same,pathogens against which the compound showed activity at 4 ug/ml,ESKAPE pathogens,ESAP
same,pathogens against which the compound showed activity at 5 ug/ml,ESKAPE pathogens,ESKAPE
same,pathogens against which the compound showed activity at 10 ug/ml,ESKAPE pathogens,ESKAPE
same,pathogens against which the compound showed activity at 25 ug/ml,ESKAPE pathogens,ESKAPE
same,MIC,Pseudomonas aeruginosa; P. aeruginosa isolate 1414,3 µM
same,MIC,Pseudomonas aeruginosa; P. aeruginosa isolate 1415,3 µM
same,MIC,Pseudomonas aeruginosa; P. aeruginosa isolate 1416,2 µM
same,MIC,Pseudomonas aeruginosa; P. aeruginosa isolate 1417,3 µM
same,MIC,Pseudomonas aeruginosa; P. aeruginosa isolate 1418,7 µM
same,MIC,Pseudomonas aeruginosa; P. aeruginosa isolate 1419,3 µM
same,MIC,Pseudomonas aeruginosa; P. aeruginosa isolate 1420,3 µM
same,MIC,Pseudomonas aeruginosa; P. aeruginosa isolate 1421,3 µM
same,MIC,Pseudomonas aeruginosa; P. aeruginosa isolate 1422,3 µM
same,MIC,Pseudomonas aeruginosa; P. aeruginosa isolate 1423,2 µM
same,MIC,"Pseudomonas aeruginosa; purified compound, Table 1",1.52 µM
same,concentration inhibiting 90% of isolates,Pseudomonas aeruginosa,5 µM
same,"stacked score activity, 100/MIC, K",Klebsiella pneumoniae,20
same,MIC,Klebsiella pneumoniae; K. pneumoniae isolate 1408,2 µM
same,MIC,Klebsiella pneumoniae; K. pneumoniae isolate 1409,3 µM
same,MIC,Klebsiella pneumoniae; K. pneumoniae isolate 1410,2 µM
same,MIC,Klebsiella pneumoniae; K. pneumoniae isolate 1411,2 µM
same,MIC,Klebsiella pneumoniae; K. pneumoniae isolate 1412,2 µM
same,MIC,Klebsiella pneumoniae; K. pneumoniae isolate 1413,2 µM
same,MIC,Klebsiella pneumoniae; K. pneumoniae isolate 1433,2 µM
same,MIC,Klebsiella pneumoniae; K. pneumoniae isolate 1434,3 µM
same,MIC,Klebsiella pneumoniae; K. pneumoniae isolate 1440,5 µM
same,MIC,Klebsiella pneumoniae; K. pneumoniae isolate 1441,2 µM
same,MIC,"Klebsiella pneumoniae; purified compound, Table 1",1.52 µM
same,concentration inhibiting 70% of strains,Klebsiella pneumoniae; [2],2 µM
same,concentration inhibiting 90% of isolates,Klebsiella pneumoniae; [2],5 µM
same,"stacked score activity, 100/MIC, A",Acinetobacter baumannii,25
same,MIC,Acinetobacter baumannii; A. baumannii isolate 1403,2 µM
same,MIC,Acinetobacter baumannii; A. baumannii isolate 1643,2 µM
same,MIC,Acinetobacter baumannii; A. baumannii isolate 1644,2 µM
same,MIC,Acinetobacter baumannii; A. baumannii isolate 1647,2 µM
same,MIC,Acinetobacter baumannii; A. baumannii isolate 1648,2 µM
same,MIC,Acinetobacter baumannii; A. baumannii isolate 1649,2 µM
same,MIC,Acinetobacter baumannii; A. baumannii isolate 1650,2 µM
same,MIC,Acinetobacter baumannii; A. baumannii isolate 1651,2 µM
same,MIC,Acinetobacter baumannii; A. baumannii isolate 1653,2 µM
same,MIC,Acinetobacter baumannii; A. baumannii isolate 1654,2 µM
same,MIC,"Acinetobacter baumannii; purified compound, Table 1",1.52 µM
same,survival of infected mice over 5 day infection period,[1],only a single mouse succumbing to infection after the first day
same,increase in MIC after serial passage,E. cloacae,8 fold
CCCCCCCN1C(=N)N(CCCC[C@H]2CNC(=N)N2CCCCC2CCCCC2)C[C@@H]1CC1CCCCC1 [Compound 16],IC50,human A549 cells,> 225 µM
same,pathogens against which the compound showed activity at 4 ug/ml,ESKAPE pathogens,EAP
same,pathogens against which the compound showed activity at 5 ug/ml,ESKAPE pathogens,ESKAPE
same,pathogens against which the compound showed activity at 10 ug/ml,ESKAPE pathogens,ESKAPE
same,pathogens against which the compound showed activity at 25 ug/ml,ESKAPE pathogens,ESKAPE
same,MIC,Pseudomonas aeruginosa; P. aeruginosa isolate 1414,3 µM
same,MIC,Pseudomonas aeruginosa; P. aeruginosa isolate 1415,3 µM
same,MIC,Pseudomonas aeruginosa; P. aeruginosa isolate 1416,2 µM
same,MIC,Pseudomonas aeruginosa; P. aeruginosa isolate 1417,3 µM
same,MIC,Pseudomonas aeruginosa; P. aeruginosa isolate 1418,7 µM
same,MIC,Pseudomonas aeruginosa; P. aeruginosa isolate 1419,3 µM
same,MIC,Pseudomonas aeruginosa; P. aeruginosa isolate 1420,3 µM
same,MIC,Pseudomonas aeruginosa; P. aeruginosa isolate 1421,3 µM
same,MIC,Pseudomonas aeruginosa; P. aeruginosa isolate 1422,3 µM
same,MIC,Pseudomonas aeruginosa; P. aeruginosa isolate 1423,2 µM
same,MIC,"Pseudomonas aeruginosa; purified compound, Table 1",1.62 µM
same,concentration inhibiting 90% of isolates,Pseudomonas aeruginosa,5 µM
same,"stacked score activity, 100/MIC, K",Klebsiella pneumoniae,20
same,MIC,Klebsiella pneumoniae; K. pneumoniae isolate 1408,2 µM
same,MIC,Klebsiella pneumoniae; K. pneumoniae isolate 1409,3 µM
same,MIC,Klebsiella pneumoniae; K. pneumoniae isolate 1410,3 µM
same,MIC,Klebsiella pneumoniae; K. pneumoniae isolate 1411,2 µM
same,MIC,Klebsiella pneumoniae; K. pneumoniae isolate 1412,3 µM
same,MIC,Klebsiella pneumoniae; K. pneumoniae isolate 1413,3 µM
same,MIC,Klebsiella pneumoniae; K. pneumoniae isolate 1433,2 µM
same,MIC,Klebsiella pneumoniae; K. pneumoniae isolate 1434,5 µM
same,MIC,Klebsiella pneumoniae; K. pneumoniae isolate 1440,3 µM
same,MIC,Klebsiella pneumoniae; K. pneumoniae isolate 1441,2 µM
same,MIC,"Klebsiella pneumoniae; purified compound, Table 1",1.62 µM
same,concentration inhibiting 90% of isolates,Klebsiella pneumoniae; [2],5 µM
same,"stacked score activity, 100/MIC, A",Acinetobacter baumannii,33
same,MIC,Acinetobacter baumannii; A. baumannii isolate 1403,2 µM
same,MIC,Acinetobacter baumannii; A. baumannii isolate 1643,2 µM
same,MIC,Acinetobacter baumannii; A. baumannii isolate 1644,2 µM
same,MIC,Acinetobacter baumannii; A. baumannii isolate 1647,2 µM
same,MIC,Acinetobacter baumannii; A. baumannii isolate 1648,2 µM
same,MIC,Acinetobacter baumannii; A. baumannii isolate 1649,2 µM
same,MIC,Acinetobacter baumannii; A. baumannii isolate 1650,2 µM
same,MIC,Acinetobacter baumannii; A. baumannii isolate 1651,2 µM
same,MIC,Acinetobacter baumannii; A. baumannii isolate 1653,2 µM
same,MIC,Acinetobacter baumannii; A. baumannii isolate 1654,2 µM
same,MIC,"Acinetobacter baumannii; purified compound, Table 1",1.62 µM
same,survival of infected mice over 5 day infection period,[1],only a single mouse succumbing to infection after the first day
same,increase in MIC after serial passage,E. cloacae,8 fold
